{
  "source": "patent US6127339A",
  "about": "“Peptide for binding thereto a low density lipoprotein” (Asahi Kasei Kogyo Kabushiki Kaisha, priority 1995, dated 2000)",
  "note": "No end group written: not given here.",
  "data": [
    {"tested_on": "LDL", "test": "LDL-adsorbing ratio of peptide-bonded resin in LDL solution (decrease of free cholesterol)", "type": "binding", "conditions": "Table 3; peptide-bonded resin 85 mg dry, 1 ml LDL solution 50 μg/ml in PBS", "units": {"LDL-adsorbing ratio (%)": "%"}, "values": [
      {"substance": "WAWEEGGGGG (not fully specified) [comparative peptide bonded to TG polystyrene resin, electric charge 0 or less, reference compound]", "LDL-adsorbing ratio (%)": 4.3},
      {"substance": "LFLMRGGGGG", "LDL-adsorbing ratio (%)": 36.9},
      {"substance": "WAWRR (not fully specified) [peptide bonded to TG polystyrene resin]", "LDL-adsorbing ratio (%)": 62.2},
      {"substance": "WAWRRGGGGG (not fully specified) [peptide bonded to TG polystyrene resin]", "LDL-adsorbing ratio (%)": 49.8},
      {"substance": "FFFFFFGGGGG [comparative peptide bonded to TG polystyrene resin, electric charge 0 or less, reference compound]", "LDL-adsorbing ratio (%)": 2.6},
      {"substance": "LFLMR (not fully specified) [peptide bonded to TG polystyrene resin]", "LDL-adsorbing ratio (%)": 39.3}
    ]},
    {"tested_on": "LDL", "test": "LDL-adsorbing ratio of peptide-bonded resin in LDL solution (decrease of free cholesterol)", "type": "binding", "conditions": "Table 4; peptide-bonded resin 85 mg dry, 1 ml LDL solution 50 μg/ml in PBS", "units": {"LDL-adsorbing ratio (%)": "%"}, "values": [
      {"substance": "WFWKK (not fully specified) [peptide bonded to TG polystyrene resin]", "LDL-adsorbing ratio (%)": 43.0},
      {"substance": "WWK", "LDL-adsorbing ratio (%)": 25.0},
      {"substance": "WFWRR (not fully specified) [peptide bonded to TG polystyrene resin]", "LDL-adsorbing ratio (%)": 49.0},
      {"substance": "WWR", "LDL-adsorbing ratio (%)": 32.0},
      {"substance": "WFWR (not fully specified) [peptide bonded to TG polystyrene resin]", "LDL-adsorbing ratio (%)": 35.0},
      {"substance": "WFWK (not fully specified) [peptide bonded to TG polystyrene resin]", "LDL-adsorbing ratio (%)": 33.0}
    ]},
    {"tested_on": "LDL", "test": "LDL-adsorbing ratio of peptide-bonded resin in LDL solution (decrease of free cholesterol)", "type": "binding", "conditions": "Table 5; D-form and L-form peptides on resin, same manner as Example 4", "units": {"LDL-adsorbing ratio (%)": "%"}, "values": [
      {"substance": "WWWR [WWWR (D-form)]", "LDL-adsorbing ratio (%)": 33.8},
      {"substance": "WWR [WWR (D-form)]", "LDL-adsorbing ratio (%)": 41.6},
      {"substance": "WFWRR [WFWRR (D-form)]", "LDL-adsorbing ratio (%)": 38.3},
      {"substance": "WWWR [WWWR (L-form)] (also: L-form) [peptide bonded to TG polystyrene resin]", "LDL-adsorbing ratio (%)": 42.2}
    ]},
    {"tested_on": "LDL", "test": "LDL-adsorbing ratio of peptide-bonded resin in LDL solution (decrease of free cholesterol)", "type": "binding", "conditions": "Table 5; D-form and L-form peptides on resin, same manner as Example 4; listed as WFWRR (L-form)", "units": {"LDL-adsorbing ratio (%)": "%"}, "values": [
      {"substance": "WFWRR (not fully specified) [peptide bonded to TG polystyrene resin]", "LDL-adsorbing ratio (%)": 39.1}
    ]},
    {"tested_on": "LDL", "test": "LDL-adsorbing ratio of peptide-bonded resin in LDL solution (decrease of free cholesterol)", "type": "binding", "conditions": "Table 5; D-form and L-form peptides on resin, same manner as Example 4; listed as WWR (L-form)", "units": {"LDL-adsorbing ratio (%)": "%"}, "values": [
      {"substance": "WWR", "LDL-adsorbing ratio (%)": 33.8}
    ]},
    {"tested_on": "LDL", "test": "LDL-adsorbing ratio of peptide-bonded resin in LDL solution (decrease of free cholesterol)", "type": "binding", "conditions": "Table 6; peptide-bonded resin, same manner as Example 4", "units": {"LDL-adsorbing ratio (%)": "%"}, "values": [
      {"substance": "WAAR (not fully specified) [peptide bonded to TG polystyrene resin]", "LDL-adsorbing ratio (%)": 36.3},
      {"substance": "WAAAR (not fully specified) [peptide bonded to TG polystyrene resin]", "LDL-adsorbing ratio (%)": 39.3},
      {"substance": "WAAAAR (not fully specified) [peptide bonded to TG polystyrene resin]", "LDL-adsorbing ratio (%)": 26.3},
      {"substance": "WAAAAAR (not fully specified) [peptide bonded to TG polystyrene resin]", "LDL-adsorbing ratio (%)": 23.7},
      {"substance": "WAR", "LDL-adsorbing ratio (%)": 32.3}
    ]},
    {"tested_on": "LDL", "test": "Staining of peptide-bonded resin with biotinylated LDL in plasma (ABC method)", "type": "binding", "parameters": "key: the peptide-bonded resins which were stained are indicated with \"+ (plus)\"; the peptide-bonded resins which were not stained are indicated with \"- (minus)\"", "conditions": "Table 1, peptide-bonded TG resin, room temperature 1 hour, peroxidase-streptoavidin/3,3'-diaminobenzidine", "method": "(§1) With respect to the adsorbent comprising the water-insoluble carrier having bonded thereto the peptide, as a method for evaluating the binding ability (affinity) of the adsorbent for an LDL, there can be mentioned a method in which, after causing an LDL to be adsorbed on the adsorbent, the adsorbent having the LDL adsorbed thereon is subjected to staining (avidin-biotin complex method, that is, ABC method). Specifically, a biotinylated LDL is added to plasma, and the adsorbent is immersed in the plasma for a predetermined period of time. Then, the adsorbent is taken out of the plasma, and washed. Subsequently, the adsorbent is immersed in a horseradish peroxidase-labeled streptoavidin solution, and a solution of 3,3'-diamino benzidine, which is a substrate for the above-mentioned enzyme (horseradish peroxidase), is added thereto, thereby staining the adsorbent. The binding ability of the adsorbent for LDL is evaluated from the degree of the staining. With respect to methods for evaluating a binding ability for LDL, reference can be made to, for example, the following literature: S. M. Hsu, L. Raine, H. Fanger, J. Histchem. Cytochem., 29, 577 (1981); and H. Towbin, T. Staehelin, J. Gordon, Proc. Natl. Acad. Sci. U.S.A., 76, 4350 (1979).\n(§2) The ability of each of the peptides to bind thereto an LDL was evaluated as follows. To a blood sample obtained from a healthy person was added a 3.8% aqueous solution of sodium citrate to thereby obtain a mixture. The obtained mixture was centrifuged to separate the blood sample into a blood cells component and a plasma component.\n(§3) On the other hand, each of the above-mentioned polystyrene resins having bonded thereto the above-synthesized peptides was individually taken out from the synthesis reaction system and packed in a column having a filter (manufactured and sold by Bio-Rad laboratories, U.S.A.). Subsequently, the plasma-LDL mixture prepared above was added to the column, and the column was allowed to stand at room temperature for 1 hour. Then, the column was washed with a physiological saline containing 0.1% Tween 20 and sodium phosphate. After the washing, 1 ml of a horseradish peroxidase-labeled streptoavidine (0.2 ug/ml) solution containing 10% Block Ace (manufacturedand sold by Dainippon Pharmaceutical Co., Ltd., Japan) was added to the column, and the column was allowed to stand at room temperature for 30 minutes. Then, 1 ml of a 3,3'-diaminobenzidine tetrahydrochloride ([…]) solution containing 0.005% hydrogen peroxide was added to the column (by the addition of this solution, when a peptide-bonded resin contained in the column has the LDL bonded thereto, the resin is stained to assume brown color).\n(§4) Results are shown in Table 1, wherein the peptide-bonded resins which were stained are indicated with \"+ (plus)\" and the peptide-bonded resins which were not stained are indicated with \"- (minus)\".\n(§5) The ability of each of the peptides to bind thereto an LDL was evaluated in substantially the same manner as in Example 1.", "values": [
      {"substance": "Comparative Example 1 Sample 2: comparative pentapeptide N1-N5 = P K S I N, bonded to TG polystyrene resin (PKSIN; not fully specified; printed as Pro Lys Ser Ile Asn) [reference compound]", "Stain": "-"}
    ]},
    {"tested_on": "LDL", "test": "Staining of peptide-bonded resin with biotinylated LDL in plasma (ABC method)", "type": "binding", "parameters": "key: the peptide-bonded resins which were stained are indicated with \"+ (plus)\"; the peptide-bonded resins which were not stained are indicated with \"- (minus)\"", "conditions": "Table 2, peptide-bonded TG resin, same manner as Example 1", "method": "as §1, §2, §3, §4, §5", "values": [
      {"substance": "Example 2 Sample 6: pentapeptide N1-N5 = K H I Y W, bonded to TG polystyrene resin (KHIYW; not fully specified; printed as Lys His Ile Tyr Trp)", "Stain": "+"},
      {"substance": "Comparative Example 2 Sample 4: comparative pentapeptide N1-N5 = P N A F A, bonded to TG polystyrene resin (PNAFA; not fully specified; printed as Pro Asn Ala Phe Ala) [reference compound]", "Stain": "-"},
      {"substance": "Comparative Example 2 Sample 8: comparative pentapeptide N1-N5 = H A S N P, bonded to TG polystyrene resin (HASNP; not fully specified; printed as His Ala Ser Asn Pro) [reference compound]", "Stain": "-"},
      {"substance": "Example 2 Sample 10: pentapeptide N1-N5 = L W K S F, bonded to TG polystyrene resin (LWKSF; not fully specified; printed as Leu Trp Lys Ser Phe)", "Stain": "+"},
      {"substance": "Comparative Example 2 Sample 12: comparative pentapeptide N1-N5 = E A K H E, bonded to TG polystyrene resin (EAKHE; not fully specified; printed as Glu Ala Lys His Glu) [reference compound]", "Stain": "-"},
      {"substance": "Comparative Example 2 Sample 3: comparative pentapeptide N1-N5 = W H V Q T, bonded to TG polystyrene resin (WHVQT; not fully specified; printed as Trp His Val Gln Thr) [reference compound]", "Stain": "-"},
      {"substance": "Example 2 Sample 8: pentapeptide N1-N5 = L K W F Q, bonded to TG polystyrene resin (LKWFQ; not fully specified; printed as Leu Lys Trp Phe Gln)", "Stain": "+"}
    ]}
  ]
}
